Test results taken from patent US8680076B2, “Methods of treatment, improvement and prevention using haloaryl substituted aminopurines” (Signal Pharmaceuticals, LLC, priority 2010, dated 2014).
“Also recorded” adds a separate entry of the source.

Assays:
CD-IGS rats = assay: Rat model of excisional wound healing; type: in vivo
Method: Male CD-IGS rats (Strain code 001; n=32-52 per experiment) were obtained from Charles River Laboratories at a body weight of 175-195 g. Rats were housed in regular shoebox cages and allowed to become acclimated for a minimum of 1 week. Rats were fed Harlan Teklad (No. 7001) 4% mouse/rat diet and water ad libitum and were maintained on a 12-hour light/dark cycle.
Suspensions of Compound JNKi-1 were prepared in aqueous 0.5% CMC and 0.25% Tween-80. The formulations were homogenized using a TEFLON® pestle and mortar (Potter-Elvehjem tissue grinder). Vehicle (aqueous solution of 0.5% carboxymethylcellulose, and 0.25% Tween-80) and test article compounds were dosed at a volume of 5 mL/kg. Groups of rats (n=4-8/group) were dosed orally with vehicle, Dexamethasone (0.5 mg/kg) or Compound JNKi-1 (10 mg/kg, 30 mg/kg or 60 mg/kg) daily throughout the study starting 4 days prior to the procedure and continuing for up to […]. Compound JNKi-1 treated groups and the respective vehicle control group were dosed twice daily (bid) with an 8 hr separation between the doses. Dexamethasone treated animals and the respective vehicle control group were dosed once daily (qd) for the duration of the study.
Rats were anesthetized by inhaled isoflurane and the dorsal area was shaved and swabbed with 70% alcohol. Two points were marked 5.5 and 8.5 cm from the base of the skull along the midline. Four further points were marked 1 cm at either side of the midline, two at each of the marked points. These delineated the centers of four excisional wounds. The biopsy punch (6 mm diameter) was aligned vertically over the center of a mark and the epidermis, dermis and panniculus carnosus pierced by applying pressure and twisting at the same time. The skin plug was then removed. This was repeated for the remaining wounds (FIG. 15). The animal was then allowed to recover. All animals were housed singly during the experiment. Rats were monitored twice a day for the first 24 hours following the procedure and then daily until the end of the study. Body weights were recorded two or three times per week. Animals were sacrificed via CO2 asphyxiation at various time-points (day 1, 5, 10 or 14) following wounding.
Each wound size was measured using an electronic digital caliper and the percent of wound remaining open was calculated relative to the initial wound size recorded on day 0 (day of wounding procedure). Four values were averaged for each animal (four wounds on each rat). Measurements were taken at different time-points throughout the study.
Wounds and 2 mm of surrounding tissue were excised using an 8 mm biopsy punch. Wounds were harvested on days 1, 5, 10 and 14 following the procedure. Tissues were fixed in neutral buffered formalin for 3 h then transferred to 100% ethanol. Tissues were paraffin-embedded and four μm cross sections were cut and mounted on poly-lysine slides and stored in slide boxes at room temperature.
One slide for each specimen was stained for H&E to assess granulation-tissue formation and re-epithelialization of the wound gap.
Samples collected on day 10 and 14 were stained with Trichrome Stain (Masson) Kit (Sigma, HT15) to evaluate collagen deposition and remodeling.
Tissue sections were deparaffinized and hydrated to deionized (DI) water. Sections were incubated in preheated Bouin' Solution (Sigma, HT10-132) at 56° C. overnight and then thoroughly rinsed in tap water. Sections were stained in Weigert's Iron Hematoxylin solution (Sigma, HT10-79) for 15 min, washed, and counterstained with Biebrich Scarlet Acid Fuchsin solution. After washing, sections were incubated with Phosphotungstic-Phosphomolybdic acid solution for 15 min and then stained with Aniline Blue solution. Sections were dehydrated and cleared in xylene.
Wound healing was evaluated on day 10 and day 14 after the procedure. H&E sections were scored for re-epithelialization using the following criteria: […]

[1] = test system: mice, bleomycin-induced pre-established dermal fibrosis; assay: Modified model of bleomycin-induced dermal fibrosis (regression of established fibrosis); type: in vivo, mouse
Text: To evaluate, whether inhibition of JNK might also be effective for the treatment of established fibrosis, a modified model of bleomycin-induced dermal fibrosis was used. […] Thus, Compound JNKi-1 decreased the level of dermal thickness under the pre-treatment level (127±4% vs 175±8% compared to NaCl injections for 6 weeks, p=0.008 and p=0.021) (FIG. 7A).

[2] = 60 mg/kg bid, Studies A and B combined
[3] = 150 mg/kg for the last 3 weeks of 6 weeks bleomycin

O[C@H]1CC[C@H](Nc2ncc3nc(Nc4c(F)cc(F)cc4F)n([C@H]4CCOC4)c3n2)CC1 [JNKi-1, 4-((9-((3S)-tetrahydro-3-furanyl)-8-((2,4,6-trifluorophenyl)amino)-9H-purin-2-yl)amino)-trans-cyclohexanol]
wound healing (wound size) in words (CD-IGS rats; 60 mg/kg b.i.d): delay in wound healing was observed
delay in wound healing (CD-IGS rats; 60 mg/kg b.i.d, n=3 studies): 27%
healing at day 14 (CD-IGS rats; 60 mg/kg bid): fully healed
rats completely healed by day 10 (healing score) (CD-IGS rats; [2]): 5 out of 14
rats with both incomplete re-epithelialization and collagen remodeling at day 10 (CD-IGS rats; [2]): 3 rats
rats with incomplete new epidermis at day 10 (CD-IGS rats; [2]): two
rats with only partial collagen remodeling at day 10 (CD-IGS rats; [2]): 4 rats
neutrophils recruited into the wounds (MPO IHC) versus controls (CD-IGS rats; 60 mg/kg, day 1 post wounding): did not affect inflammatory cell infiltration; also recorded: comparable
myofibroblast migration into the wound gap (α-SMA IHC) (CD-IGS rats; 60 mg/kg, day 5 post wounding): reduced myofibroblast migration; also recorded: few myofibroblasts migrating at the wound edges
wound size versus vehicle (CD-IGS rats; 30 or 10 mg/kg bid): no difference
healing score versus vehicle control, day 10 (CD-IGS rats; Study C, 10 mg/kg): No significant effect
rats with both incomplete re-epithelialization and collagen remodeling (CD-IGS rats; Study C, 30 mg/kg, day 10): 5 out of 8
rats completely healed by day 10 (CD-IGS rats; Study C, 60 mg/kg): None
healing score versus vehicle control, day 10 (CD-IGS rats; Study C, 60 and 30 mg/kg): significant delay in healing
time of complete skin repair post wounding (CD-IGS rats; all treated groups): ≤ 14 days
dermal thickness, normalized to NaCl injections for 6 weeks = 100% ([1]; 150 mg/kg BID for the last 3 weeks of 6 weeks bleomycin): 127±4%
accumulation of collagen (hydroxyproline assay) [1, 3]: significantly reduced
number of myofibroblasts, normalized to NaCl injections for 6 weeks = 100% [1, 3]: 171±31%
regression of established fibrosis / dermal thickening (in words) ([1]; treatment for the last 3 weeks of continuous bleomycin challenge): induced regression of dermal thickening; also recorded: induced regression of fibrosis
